Our source for the Ki and IC50 values is patent publication US20240150293A1, “SPIROCYCLOHEXANE DERIVATIVES, PHARMACEUTICAL COMPOSITIONS CONTAINING THEM AND THEIR USES AS ANTI-APOPTOTIC INHIBITORS” (LES LABORATOIRES SERVIER, priority 2021, published 2024).

SMILES strings stand for the structures.

Test [1] deals with Cy5-labelled Mcl1 (amino acids 171-321) C286S protein (UniProtKB Q07820) (Homo sapiens (Human), UniProt Q07820, C286S). As to the kind of experiment: Inhibition of Mcl-1 by the fluorescence quenching assay (Example A, Method B). The test is classed as binding. In short, it runs like this:
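Eleven-point compound series incubated 2 h at room temperature with 1 nM Cy5-tagged protein and quencher-labelled PUMA peptide at 10, 20 or 400 nM in HEPES/NaCl/Tween 20, pH 7.4, 5% DMSO. IC50 for 50% fluorescence increase by 4-parameter fit, then Ki derived (complete cKi or estimated eKi).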

A further test relates to NCI-H929 cell lines. Description: In vitro cytotoxicity, CellTiter-Glo (CTG) assay (Example B, Method B). It counts as cell-based. Particulars: Homo sapiens, NCI-H929, 48 h, NCI-H929 cells, 48 h incubation, read-out: C50. An outline of the steps: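 ATP-based luminescence (CellTiter-Glo) after 48 h incubation at 37° C., 5% CO2 gave NCI-H929 viability. Eleven concentrations tested, highest final 30 μM, dispensed acoustically from 10 mM DMSO stocks; C50 defined as concentration reaching 50% viability.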
On the technique in general: Cellular ATP, detected with luciferase, serves as a proxy for viable cell number.

Cy5-labelled Mcl1 (amino acids 171-321) C286S protein, sequence (Q07820 171-321 C286S): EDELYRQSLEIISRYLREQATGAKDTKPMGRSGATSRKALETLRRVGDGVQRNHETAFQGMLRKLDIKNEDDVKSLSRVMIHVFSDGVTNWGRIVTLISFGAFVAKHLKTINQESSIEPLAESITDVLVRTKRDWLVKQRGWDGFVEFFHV

As usually defined, the Ki is the equilibrium dissociation constant of an inhibitor or competing ligand from its target. Turning to `C[C@@H](COc1ccnc2c1[C@H](C)CCC2)C[C@H]1Cc2cc3c(cc2[C@]12CC[C@@](Nc1cccc(Cl)c1)(C(=O)O)CC2)O[C@H](C)[C@@H](C)O3` [Example 976, (1r,2′R,3′R,4S,7′S)-4-(3-chloroanilino)-2′,3′-dimethyl-7′-[(2R)-2-methyl-3-{[(5R)-5-methyl-5,6,7,8-tetrahydroquinolin-4-yl]oxy}propyl]-2′,3′,7′,8′-tetrahydrospiro[cyclohexane-1,6′-indeno[5,6-b][1,4]dioxine]-4-carboxylic acid], the Ki in test [1] is 0.0163 nM. The IC50 with NCI-H929 cell lines turned out to be 72.5 nM.
On to `CC[C@H]1COc2cc3c(cc2O1)[C@]1(CC[C@@](Nc2cccc(Cl)c2)(C(=O)O)CC1)[C@@H](C[C@@H](C)COc1ccnc2c1[C@H](C)CCC2)C3` [Example 977, (1r,3'S,4S,7′S)-4-(3-chloroanilino)-3′-ethyl-7′-[(2R)-2-methyl-3-{[(5R)-5-methyl-5,6,7,8-tetrahydroquinolin-4-yl]oxy}propyl]-2′,3′,7′,8′-tetrahydrospiro[cyclohexane-1,6′-indeno[5,6-b][1,4]dioxine]-4-carboxylic acid], for which the Ki in test [1] is 0.0231 nM. In the test with NCI-H929 cell lines, the IC50 amounted to 56 nM.
For `CC[C@H]1COc2cc3c(cc2O1)C[C@H](C[C@@H](C)COc1ccnc2c1[C@H](C)CCC2)[C@]31CC[C@](Nc2cccc(Cl)c2)(C(=O)O)CC1` [Example 978, (1r,2′S,4S,7′S)-4-(3-chloroanilino)-2′-ethyl-7′-[(2R)-2-methyl-3-{[(5R)-5-methyl-5,6,7,8-tetrahydroquinolin-4-yl]oxy}propyl]-2′,3′,7′,8′-tetrahydrospiro[cyclohexane-1,6′-indeno[5,6-b][1,4]dioxine]-4-carboxylic acid], in that order: 0.0831 nM and 164 nM.
As for `CC[C@@H]1COc2cc3c(cc2O1)[C@]1(CC[C@@](Nc2cccc(Cl)c2)(C(=O)O)CC1)[C@@H](C[C@@H](C)COc1ccnc2c1[C@H](C)CCC2)C3` [Example 979, (1r,3′R,4S,7′S)-4-(3-chloroanilino)-3′-ethyl-7′-[(2R)-2-methyl-3-{[(5R)-5-methyl-5,6,7,8-tetrahydroquinolin-4-yl]oxy}propyl]-2′,3′,7′,8′-tetrahydrospiro[cyclohexane-1,6′-indeno[5,6-b][1,4]dioxine]-4-carboxylic acid], in test [1], the Ki was found to be 0.0299 nM. For the same compound, the IC50 in the test with NCI-H929 cell lines is 67.2 nM.
As to `CC[C@@H]1COc2cc3c(cc2O1)C[C@H](C[C@@H](C)COc1ccnc2c1[C@H](C)CCC2)[C@]31CC[C@](Nc2cccc(Cl)c2)(C(=O)O)CC1` [Example 980, (1r,2′R,4S,7′S)-4-(3-chloroanilino)-2′-ethyl-7′-[(2R)-2-methyl-3-{[(5R)-5-methyl-5,6,7,8-tetrahydroquinolin-4-yl]oxy}propyl]-2′,3′,7′,8′-tetrahydrospiro[cyclohexane-1,6′-indeno[5,6-b][1,4]dioxine]-4-carboxylic acid], in test [1], the Ki is 0.102 nM. Further, in the test on NCI-H929 cell lines, the IC50 stood at 142 nM.
For `C[C@@H](COc1ccnc2c1[C@H](C)CCC2)C[C@H]1Cc2cc3c(cc2[C@]12CC[C@@](Nc1cccc(Cl)c1)(C(=O)O)CC2)OCC(C)(C)CO3` [Example 981, (1r,4S,8′S)-4-(3-chloroanilino)-3′,3′-dimethyl-8′-[(2R)-2-methyl-3-{[(5R)-5-methyl-5,6,7,8-tetrahydroquinolin-4-yl]oxy}propyl]-3′,4′,8′,9′-tetrahydro-2′H-spiro[cyclohexane-1,7′-indeno[5,6-b][1,4]dioxepine]-4-carboxylic acid], the Ki in test [1] is 0.0238 nM. The IC50 in the test on NCI-H929 cell lines came out at 86 nM.
For the compound `C[C@@H](COc1ccnc2c1[C@H](C)CCC2)C[C@H]1Cc2cc3c(cc2[C@]12CC[C@@](Nc1cccc(Cl)c1)(C(=O)O)CC2)O[C@@H](C)CCO3` [Example 984, (1r,4S,4'S,8′S)-4-(3-chloroanilino)-4′-methyl-8′-[(2R)-2-methyl-3-{[(5R)-5-methyl-5,6,7,8-tetrahydroquinolin-4-yl]oxy}propyl]-3′,4′,8′,9′-tetrahydro-2′H-spiro[cyclohexane-1,7′-indeno[5,6-b][1,4]dioxepine]-4-carboxylic acid], in test [1], the Ki was 0.00728 nM. For the same compound, in the test on NCI-H929 cell lines, the IC50 amounted to 35.5 nM.
For the compound `C[C@@H](COc1ccnc2c1[C@H](C)CCC2)C[C@H]1Cc2cc3c(cc2[C@]12CC[C@@](Nc1cccc(Cl)c1)(C(=O)O)CC2)OCC[C@H](C)O3` [Example 985, (1r,2′S,4S,8′S)-4-(3-chloroanilino)-2′-methyl-8′-[(2R)-2-methyl-3-{[(5R)-5-methyl-5,6,7,8-tetrahydroquinolin-4-yl]oxy}propyl]-3′,4′,8′,9′-tetrahydro-2′H-spiro[cyclohexane-1,7′-indeno[5,6-b][1,4]dioxepine]-4-carboxylic acid], the Ki in test [1] came to 0.0955 nM. The IC50 in the test with NCI-H929 cell lines came to 121 nM.
For `C[C@@H](COc1ccnc2c1[C@H](C)CCC2)C[C@H]1Cc2cc3c(cc2[C@]12CC[C@@](Nc1cccc(Cl)c1)(C(=O)O)CC2)OCC[C@@H](C)O3` [Example 986, (1r,2′R,4S,8′S)-4-(3-chloroanilino)-2′-methyl-8′-[(2R)-2-methyl-3-{[(5R)-5-methyl-5,6,7,8-tetrahydroquinolin-4-yl]oxy}propyl]-3′,4′,8′,9′-tetrahydro-2′H-spiro[cyclohexane-1,7′-indeno[5,6-b][1,4]dioxepine]-4-carboxylic acid], in test [1], the Ki is 0.0342 nM. Also, the IC50 in the test with NCI-H929 cell lines was found to be 86.9 nM.
With `C[C@@H](COc1ccnc2c1[C@H](C)CCC2)C[C@H]1Cc2cc3c(cc2[C@]12CC[C@@](Nc1cccc(Cl)c1)(C(=O)O)CC2)O[C@H](C)CCO3` [Example 987, (1r,4S,4′R,8′S)-4-(3-chloroanilino)-4′-methyl-8′-[(2R)-2-methyl-3-{[(5R)-5-methyl-5,6,7,8-tetrahydroquinolin-4-yl]oxy}propyl]-3′,4′,8′,9′-tetrahydro-2′H-spiro[cyclohexane-1,7′-indeno[5,6-b][1,4]dioxepine]-4-carboxylic acid], in test [1], the Ki came out at 0.00447 nM. For the same compound, in the test with NCI-H929 cell lines, the IC50 worked out at 37.7 nM.
For `C[C@@H](COc1ccnc2c1[C@H](C)CCC2)C[C@H]1Cc2cc3c(cc2[C@]12CC[C@@](Nc1cccc(Cl)c1)(C(=O)O)CC2)OCC1(CC1)CO3` [Example 994, (1r,4S,8′S)-4-(3-chloroanilino)-8′-[(2R)-2-methyl-3-{[(5R)-5-methyl-5,6,7,8-tetrahydroquinolin-4-yl]oxy}propyl]-8′,9′-dihydro-2′H,4′H-dispiro[cyclohexane-1,7′-indeno[5,6-b][1,4]dioxepine-3′,1″-cyclopropane]-4-carboxylic acid], in that order: 0.0442 nM and 59.7 nM.
As for `C[C@@H](COc1ccnc2c1[C@H](C)CCC2)C[C@H]1Cc2cc3c(cc2[C@]12CC[C@@](Nc1cccc(Cl)c1)(C(=O)O)CC2)OCC1(CCC1)CO3` [Example 995, (1″r,4″S,8′S)-4″-(3-chloroanilino)-8′-[(2R)-2-methyl-3-{[(5R)-5-methyl-5,6,7,8-tetrahydroquinolin-4-yl]oxy}propyl]-8′,9′-dihydro-2′H,4′H-dispiro[cyclobutane-1,3′-indeno[5,6-b][1,4]dioxepine-7′,1″-cyclohexane]-4″-carboxylic acid], the Ki in test [1] was 0.0885 nM. Moreover, the IC50 in the test with NCI-H929 cell lines was 108 nM.
As for `C[C@@H](COc1ccnc2c1[C@H](C)CCC2)C[C@H]1Cc2cc3c(cc2[C@]12CC[C@@](Nc1cccc(Cl)c1)(C(=O)O)CC2)OCC(F)(F)CO3` [Example 996, (1r,4S,8′S)-4-(3-chloroanilino)-3′,3′-difluoro-8′-[(2R)-2-methyl-3-{[(5R)-5-methyl-5,6,7,8-tetrahydroquinolin-4-yl]oxy}propyl]-3′,4′,8′,9′-tetrahydro-2′H-spiro[cyclohexane-1,7′-indeno[5,6-b][1,4]dioxepine]-4-carboxylic acid], the Ki in test [1] was found to be 0.028 nM. Besides, the IC50 in the test on NCI-H929 cell lines was 84.5 nM.
For `CC(C)[C@@H]1CCOc2cc3c(cc2O1)C[C@H](C[C@@H](C)COc1ccnc2c1[C@H](C)CCC2)[C@]31CC[C@](Nc2cccc(Cl)c2)(C(=O)O)CC1` [Example 997, (1r,2′S,4S,8′S)-4-(3-chloroanilino)-8′-[(2R)-2-methyl-3-{[(5R)-5-methyl-5,6,7,8-tetrahydroquinolin-4-yl]oxy}propyl]-2′-(propan-2-yl)-3′,4′,8′,9′-tetrahydro-2′H-spiro[cyclohexane-1,7′-indeno[5,6-b][1,4]dioxepine]-4-carboxylic acid], in that order: 4.15 nM and 965 nM.
Regarding `CC(C)[C@@H]1CCOc2cc3c(cc2O1)[C@]1(CC[C@@](Nc2cccc(Cl)c2)(C(=O)O)CC1)[C@@H](C[C@@H](C)COc1ccnc2c1[C@H](C)CCC2)C3` [Example 998, (1r,4S,4'S,8′S)-4-(3-chloroanilino)-8′-[(2R)-2-methyl-3-{[(5R)-5-methyl-5,6,7,8-tetrahydroquinolin-4-yl]oxy}propyl]-4′-(propan-2-yl)-3′,4′,8′,9′-tetrahydro-2′H-spiro[cyclohexane-1,7′-indeno[5,6-b][1,4]dioxepine]-4-carboxylic acid], in test [1], the Ki is 0.106 nM. Besides, the IC50 with NCI-H929 cell lines was 63.1 nM.
